The compounds below were run on IL-5 production (assay: In vitro inhibition of IL-5 production in human blood (phytohemagglutinin-stimulated whole blood, ELISA)). Conditions: test dose 1×10^−6 M, 48 hours.
Assay type: cell-based
Summary of the method: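 Percent inhibition of IL-5, quantified by ELISA in cell-free supernatants, is given at a single dose of 1×10^−6 M (or 1×10^−5 M). Threefold-diluted human whole blood from healthy men received compound for 60 min at 37° C before 48 h PHA stimulation at 2 μg/mL.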
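Further: values marked with an asterisk were tested at 10 µM and unmarked values at 1 µM.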

**Q.** Which “% inh. (percentage inhibition of IL-5 production)” value does the source give for `O.O=c1cnn(-c2ccc(C(Sc3nccc(O)n3)c3ccc(Cl)cc3)c(Cl)c2)c(=O)[nH]1` (racemic) [Compound 61] here?
**A.** 14%

**Q.** Which “% inh. (percentage inhibition of IL-5 production)” value does the source give for `Cc1sc(C(c2ccc(Cl)cc2)c2c(Cl)cc(-n3ncc(=O)[nH]c3=O)cc2Cl)nc1-c1ccccc1F` (racemic) [Comp 259] here?
**A.** 95%

**Q.** With `Cc1ccccc1-c1nc(C(c2ccc(Cl)cc2)c2c(Cl)cc(-n3ncc(=O)[nH]c3=O)cc2Cl)cs1` (racemic) [Compound 374] as the compound, how does the “% inh. (percentage inhibition of IL-5 production)” value read?
**A.** 94%

**Q.** Which “% inh. (percentage inhibition of IL-5 production)” value does the source give for `Cn1ccnc1C(O)(c1ccc(Cl)cc1)c1ccc(-n2ncc(=O)[nH]c2=O)cc1Cl.O` (racemic) [Compound 120, (±)-2-[3-chloro[4-[(4-chlorophenyl)hydroxy(1-methyl-1H-imidazol-2-yl)methyl]phenyl]-1,2,4-triazine-3,5(2H,4H)-dione monohydrate] here?
**A.** 10%

**Q.** Which “% inh. (percentage inhibition of IL-5 production)” value does the source give for `O=c1cnn(-c2ccc(C(c3ccc(Cl)cc3)c3nc(-c4ccccc4)no3)c(Cl)c2)c(=O)[nH]1` (racemic) [Compound 125, (±)-2-[(3-chloro-4-[(4-chlorophenyl)(3-phenyl-1,2,4-oxadiazol-5-yl)methyl]phenyl]-1,2,4-triazine-3,5(2H,4H)-dione] here?
**A.** 52%

**Q.** Which “% inh. (percentage inhibition of IL-5 production)” value does the source give for `COc1ccccc1-c1csc(C(c2ccc(Cl)cc2)c2c(Cl)cc(-n3ncc(=O)[nH]c3=O)cc2Cl)n1` (racemic) [Comp 263] here?
**A.** 92%

**Q.** `O=c1cnn(-c2ccc(C(Sc3ccccn3)c3ccc(Cl)c(C(F)(F)F)c3)c(Cl)c2)c(=O)[nH]1` (stereo not drawn) [Compound 86] was tested. Which “% inh. (percentage inhibition of IL-5 production)” value did it give?
**A.** 84%

**Q.** How did the “% inh. (percentage inhibition of IL-5 production)” value turn out when `O=c1cnn(-c2ccc(C(Sc3ccncc3)c3ccc(Cl)cc3)c(Cl)c2)c(=O)[nH]1` (racemic) [Compound 65] was run?
**A.** 50%

**Q.** With `O=c1cnn(-c2ccc(C(Sc3nc4cccnc4s3)c3ccc(Cl)cc3)c(Cl)c2)c(=O)[nH]1` (racemic) [Compound 81] as the compound, how does the “% inh. (percentage inhibition of IL-5 production)” value read?
**A.** 76%

**Q.** `O=c1cnn(-c2cc(Cl)c(C(c3ccc(Cl)cc3)c3nnc(C4CCCCC4)o3)c(Cl)c2)c(=O)[nH]1` (racemic) [Compound 159] was tested. Which “% inh. (percentage inhibition of IL-5 production)” value did it give?
**A.** 87%

**Q.** With `O=c1cnn(-c2ccc(C(c3ccncc3)c3ccc(Cl)cc3)c(Cl)c2)c(=O)[nH]1` (stereo not drawn) [Comp 112] as the compound, how does the “% inh. (percentage inhibition of IL-5 production)” value read?
**A.** 62%

**Q.** `CN(C)CCN(C)Cc1sc(C(c2ccc(Cl)cc2)c2c(Cl)cc(-n3ncc(=O)[nH]c3=O)cc2Cl)nc1-c1ccccc1` (racemic) [Comp 311] was tested. Which “% inh. (percentage inhibition of IL-5 production)” value did it give?
**A.** 64%

**Q.** For `O=c1cnn(-c2cc(Cl)c(C(c3ccc(Cl)cc3)c3nnc(COc4ccccc4Cl)o3)c(Cl)c2)c(=O)[nH]1` (racemic) [Compound 175], which “% inh. (percentage inhibition of IL-5 production)” value is on record?
**A.** 58%

**Q.** For `Nc1ccc(SC(c2ccc(Cl)cc2)c2ccc(-n3ncc(=O)[nH]c3=O)cc2Cl)cc1` (racemic) [Compound 59], which “% inh. (percentage inhibition of IL-5 production)” value is on record?
**A.** 76%

**Q.** For `O=c1cnn(-c2cc(Cl)c(C(c3ccc(Cl)cc3)c3csc(-c4cccc(F)c4)n3)c(Cl)c2)c(=O)[nH]1` (racemic) [Compound 368], which “% inh. (percentage inhibition of IL-5 production)” value is on record?
**A.** 88%

**Q.** `O=c1cnn(-c2cc(Cl)c(C(c3ccc(Cl)cc3)c3sc(-c4ccccc4)nc3-c3ccccc3Cl)c(Cl)c2)c(=O)[nH]1` (racemic) [Compound 145] was tested. Which “% inh. (percentage inhibition of IL-5 production)” value did it give?
**A.** 37%

**Q.** For `O=c1cnn(-c2cc(Cl)c(C(c3ccc(Cl)cc3)c3nc(-c4ccccc4)c(CO)s3)c(Cl)c2)c(=O)[nH]1` (racemic) [Comp 282], which “% inh. (percentage inhibition of IL-5 production)” value is on record?
**A.** 93%

**Q.** How did the “% inh. (percentage inhibition of IL-5 production)” value turn out when `CN(C)Cc1nnc(C(c2ccc(Cl)cc2)c2c(Cl)cc(-n3ncc(=O)[nH]c3=O)cc2Cl)o1` (racemic) [Compound 198] was run?
**A.** 46%

**Q.** Which “% inh. (percentage inhibition of IL-5 production)” value does the source give for `Cc1sc(C(c2ccc(Cl)cc2)c2c(Cl)cc(-n3ncc(=O)[nH]c3=O)cc2Cl)nc1-c1c(F)cccc1F` (racemic) [Comp 268] here?
**A.** 83%

**Q.** `O=c1cnn(-c2cc(Cl)c(C(Sc3ncccn3)c3ccc(Cl)c(C(F)(F)F)c3)c(Cl)c2)c(=O)[nH]1` (racemic) [Compound 341] was tested. Which “% inh. (percentage inhibition of IL-5 production)” value did it give?
**A.** 96%

**Q.** For `CC(c1ccc(Cl)c(Cl)c1)(c1nc(-c2ccccc2)cs1)c1c(Cl)cc(-n2ncc(=O)[nH]c2=O)cc1Cl` (racemic) [Comp 227], which “% inh. (percentage inhibition of IL-5 production)” value is on record?
**A.** 78%

**Q.** How did the “% inh. (percentage inhibition of IL-5 production)” value turn out when `CCOCc1sc(C(c2ccc(Cl)cc2)c2c(Cl)cc(-n3ncc(=O)[nH]c3=O)cc2Cl)nc1-c1ccccc1` (racemic) [Comp 295] was run?
**A.** 90%

**Q.** Which “% inh. (percentage inhibition of IL-5 production)” value does the source give for `Cc1oc(C(c2ccc(Cl)cc2)c2c(Cl)cc(-n3ncc(=O)[nH]c3=O)cc2Cl)nc1-c1ccccc1` (stereo not drawn) [Comp 426] here?
**A.** 92%

**Q.** `CN1CCC(Nc2ccnc(SC(c3ccc(Cl)cc3)c3c(Cl)cc(-n4ncc(=O)[nH]c4=O)cc3Cl)n2)CC1.Cl.O` (racemic) [Compound 354] was tested. Which “% inh. (percentage inhibition of IL-5 production)” value did it give?
**A.** 70%

**Q.** How did the “% inh. (percentage inhibition of IL-5 production)” value turn out when `Cc1sc(-c2cccc(F)c2)nc1C(c1ccc(Cl)cc1)c1c(Cl)cc(-n2ncc(=O)[nH]c2=O)cc1Cl` (racemic) [Compound 370] was run?
**A.** 76%

**Q.** `Nc1cc(SC(c2ccc(Cl)cc2)c2ccc(-n3ncc(=O)[nH]c3=O)cc2Cl)nc(N)n1` (racemic) [Compound 68] was tested. Which “% inh. (percentage inhibition of IL-5 production)” value did it give?
**A.** 60%

**Q.** `O=c1cnn(-c2cc(Cl)c(C(c3ccc(Cl)cc3)c3nc(-c4ccccc4)c(COC4CCCCC4)s3)c(Cl)c2)c(=O)[nH]1` (racemic) [Comp 310] was tested. Which “% inh. (percentage inhibition of IL-5 production)” value did it give?
**A.** 79%

**Q.** `CCc1sc(C(c2ccc(Cl)cc2)c2c(Cl)cc(-n3ncc(=O)[nH]c3=O)cc2Cl)nc1-c1ccccc1` (racemic) [Comp 224] was tested. Which “% inh. (percentage inhibition of IL-5 production)” value did it give?
**A.** 95%

**Q.** How did the “% inh. (percentage inhibition of IL-5 production)” value turn out when `COc1cc(-n2ncc(=O)[nH]c2=O)ccc1C(c1ccc(Cl)cc1)c1sc(C)nc1-c1ccccc1` (racemic) [Compound 153] was run?
**A.** 72%

**Q.** For `Nc1ccnc(SC(c2ccc(Cl)cc2)c2c(Cl)cc(-n3ncc(=O)[nH]c3=O)cc2Cl)n1` (racemic) [Compound 348], which “% inh. (percentage inhibition of IL-5 production)” value is on record?
**A.** 83%

**Q.** How did the “% inh. (percentage inhibition of IL-5 production)” value turn out when `O=c1cnn(-c2ccc(C(c3ccc(Cl)cc3)c3sc(-c4ccccc4Cl)nc3-c3ccccc3)c(Cl)c2)c(=O)[nH]1` (racemic) [Compound 150] was run?
**A.** 48%

**Q.** For `O=c1cnn(-c2ccc(C(c3ccc(Cl)cc3)c3scnc3-c3cccc(F)c3)c(Cl)c2)c(=O)[nH]1` (racemic) [Compound 148], which “% inh. (percentage inhibition of IL-5 production)” value is on record?
**A.** 79%

**Q.** With `O=c1cnn(-c2cc(Cl)c(C(Sc3nnc(-c4ccccc4)o3)c3ccc(Cl)c(C(F)(F)F)c3)c(Cl)c2)c(=O)[nH]1` (stereo not drawn) [Compound 391] as the compound, how does the “% inh. (percentage inhibition of IL-5 production)” value read?
**A.** 97%

**Q.** How did the “% inh. (percentage inhibition of IL-5 production)” value turn out when `Cc1ccoc1-c1nnc(C(c2ccc(Cl)cc2)c2c(Cl)cc(-n3ncc(=O)[nH]c3=O)cc2Cl)o1` (racemic) [Compound 207] was run?
**A.** 94%

**Q.** For `O=c1cnn(-c2cc(Cl)c(C(c3ccc(Cl)cc3)c3nc(-c4ccc(-c5ccccc5)cc4)cs3)c(Cl)c2)c(=O)[nH]1` (racemic) [Comp 30], which “% inh. (percentage inhibition of IL-5 production)” value is on record?
**A.** 57%

**Q.** With `Cc1sc(SC(c2ccc(Cl)c(C(F)(F)F)c2)c2c(Cl)cc(-n3ncc(=O)[nH]c3=O)cc2Cl)nc1-c1ccccc1` (racemic) [Compound 405] as the compound, how does the “% inh. (percentage inhibition of IL-5 production)” value read?
**A.** 80%

**Q.** How did the “% inh. (percentage inhibition of IL-5 production)” value turn out when `CN1CCC(c2nnc(C(c3ccc(Cl)cc3)c3c(Cl)cc(-n4ncc(=O)[nH]c4=O)cc3Cl)o2)CC1` (racemic) [Compound 195] was run?
**A.** 7%

**Q.** `O=c1cnn(-c2cc(Cl)c(C(c3ccc(Cl)cc3)c3nc(-c4ccc(O)cc4)cs3)c(Cl)c2)c(=O)[nH]1` (racemic) [Comp 26] was tested. Which “% inh. (percentage inhibition of IL-5 production)” value did it give?
**A.** 85%

**Q.** `COc1ccc(-c2ccnc(SC(c3ccc(Cl)cc3)c3ccc(-n4ncc(=O)[nH]c4=O)cc3Cl)n2)cc1` (racemic) [Compound 79] was tested. Which “% inh. (percentage inhibition of IL-5 production)” value did it give?
**A.** 74%

**Q.** How did the “% inh. (percentage inhibition of IL-5 production)” value turn out when `O=c1cnn(-c2cc(Cl)c(C(c3ccc(Cl)cc3)c3nc(-c4cccc(Cl)c4)cs3)c(Cl)c2)c(=O)[nH]1` (racemic) [Comp 19] was run?
**A.** 83%

**Q.** Which “% inh. (percentage inhibition of IL-5 production)” value does the source give for `O=c1cnn(-c2ccc(C(SC3CCCCC3)c3ccc(Cl)cc3)c(Cl)c2)c(=O)[nH]1` (stereo not drawn) [Compound 90] here?
**A.** 60%

**Q.** With `Cc1c(NS(N)(=O)=O)cccc1-c1nnc(C(c2ccc(Cl)cc2)c2c(Cl)cc(-n3ncc(=O)[nH]c3=O)cc2Cl)o1` (racemic) [Compound 218] as the compound, how does the “% inh. (percentage inhibition of IL-5 production)” value read?
**A.** 4%

**Q.** How did the “% inh. (percentage inhibition of IL-5 production)” value turn out when `O=c1cnn(-c2cc(Cl)c(C(SC3=NCCS3)c3ccc(Cl)c(C(F)(F)F)c3)c(Cl)c2)c(=O)[nH]1` (stereo not drawn) [Compound 386] was run?
**A.** 97%

**Q.** Which “% inh. (percentage inhibition of IL-5 production)” value does the source give for `CN(C)CCNC(=O)c1sc(C(c2ccc(Cl)cc2)c2c(Cl)cc(-n3ncc(=O)[nH]c3=O)cc2Cl)nc1-c1ccccc1.O` (racemic) [Comp 312] here?
**A.** 57%

Same assay, conditions: test dose 1×10^−6 M, 48 hours, read-out: % inh. (percentage inhibition of IL-5 production)

**Q.** Which inhibition at 1 µM does the source give for `O=c1cnn(-c2cc(Cl)c(C(Sc3nnc(-c4ccccc4)o3)c3ccc(Cl)cc3)c(Cl)c2)c(=O)[nH]1` (racemic) [Compound 406, (±)-2-[3,5-dichloro-4-[(4-chlorophenyl)[(5-phenyl-1,3,4-oxadiazol-2-yl)thio]methyl]phenyl]-1,2,4-triazine-3,5(2H,4H)-dione] here?
**A.** 84%

**Q.** For `[N-]=[N+]=Nc1cccc(-c2nnc(C(c3ccc(Cl)cc3)c3c(Cl)cc(-n4ncc(=O)[nH]c4=O)cc3Cl)o2)c1` (racemic) [Compound 194, (±)-2-[4-[[5-(3-azidophenyl)-1,3,4-oxadiazol-2-yl](4-chlorophenyl)methyl]-3,5-dichlorophenyl]-1,2,4-triazine-3,5(2H,4H)-dione], which inhibition at 1 µM is on record?
**A.** 83%

**Q.** Which inhibition at 1 µM does the source give for `O=c1cnn(-c2cc(Cl)c(C(Nc3ncccn3)c3ccc(Cl)cc3)c(Cl)c2)c(=O)[nH]1` (racemic) [Compound 413, (±)-2-[3,5-dichloro-4-[(4-chlorophenyl)[(2-pyrimidinyl)amino]-methyl]phenyl]-1,2,4-triazine-3,5(2H,4H)-dione] here?
**A.** 59%

**Q.** `Cc1nc(C(c2ccc(Cl)cc2)c2ccc(-n3ncc(=O)[nH]c3=O)cc2Cl)no1` (racemic) [Compound 126, (±)-2-[3-chloro-4-[(4-chlorophenyl)(5-methyl-1,2,4-oxadiazol-3-yl)methyl]phenyl]-1,2,4-triazine-3,5(2H,4H)-dione] was tested. Which inhibition at 1 µM did it give?
**A.** 40%

— patent publication US6867207B2, “IL-5 inhibiting 6-azauracil derivatives” (Janssen Pharmaceutica N.V., priority 1997, dated 2005)
